Common to all, as to assay type: biochemical
Assay [1] has as its target Cdk2/Cyclin A (Homo sapiens, UniProt P24941). In words: Assay for Inhibition of Cdk2/Cyclin A. The note with it: 12 mM ATP (so in the source), retinoblastoma protein substrate, 25° C., 15 minutes. The method, then:
(§1) The assays were carried out as described below.
Assay for Inhibition of Cdk2/Cyclin A
Cdk2 enzyme assays for IC50 determinations and kinetic evaluation are performed as follows. 96-well filter plates (Millipore MADVN6550) are used. […] All components except the ATP are added to the wells, and the plate is placed on a plate mixer for 2 minutes. The reaction is initiated by addition of [^32P]ATP, and the plate is incubated at 25° C. for 15 minutes. The reaction is terminated by addition of 0.1 mL 20% TCA. The plate is kept at 4° C. for at least 1 hour to allow the substrate to precipitate. The wells are then washed five times with 0.2 mL 10% TCA, and ^32P incorporation is determined with a beta plate counter (Wallac Inc., Gaithersburg, Md.).

The target in assay [2] is FGF receptor (FGFr) tyrosine kinase (Homo sapiens, UniProt P11362). In words: Assay for Inhibition of FGFr. The following applies: 50 μM ATP, Poly (4:1) glutamate-tyrosine substrate, 25° C. The procedure: as §1
Chain of FGF receptor (FGFr) tyrosine kinase (P11362 22-822): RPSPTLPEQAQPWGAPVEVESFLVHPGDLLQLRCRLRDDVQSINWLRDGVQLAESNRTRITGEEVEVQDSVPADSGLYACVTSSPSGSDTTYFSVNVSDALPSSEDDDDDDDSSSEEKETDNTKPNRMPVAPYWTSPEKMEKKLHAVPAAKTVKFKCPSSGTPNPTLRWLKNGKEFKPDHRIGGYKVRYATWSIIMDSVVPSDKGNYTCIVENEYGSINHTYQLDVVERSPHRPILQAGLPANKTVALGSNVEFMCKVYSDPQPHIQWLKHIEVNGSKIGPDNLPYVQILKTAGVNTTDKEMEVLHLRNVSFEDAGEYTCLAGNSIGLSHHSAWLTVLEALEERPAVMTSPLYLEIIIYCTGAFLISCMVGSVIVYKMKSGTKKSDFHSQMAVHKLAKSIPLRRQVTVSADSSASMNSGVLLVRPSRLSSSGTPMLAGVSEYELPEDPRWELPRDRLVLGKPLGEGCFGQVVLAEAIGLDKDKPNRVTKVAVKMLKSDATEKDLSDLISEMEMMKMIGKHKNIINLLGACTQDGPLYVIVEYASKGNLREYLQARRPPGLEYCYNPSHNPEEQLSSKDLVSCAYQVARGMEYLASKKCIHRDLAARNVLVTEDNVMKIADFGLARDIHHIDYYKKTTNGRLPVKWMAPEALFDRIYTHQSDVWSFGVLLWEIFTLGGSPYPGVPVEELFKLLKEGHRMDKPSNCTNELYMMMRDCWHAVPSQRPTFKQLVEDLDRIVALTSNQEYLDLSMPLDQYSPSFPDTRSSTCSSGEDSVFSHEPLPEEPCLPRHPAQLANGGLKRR
Assay for Inhibition of FGFr
For FGF receptor (FGFr) tyrosine kinase assays 96-well plates (100 μL/incubation/well), and conditions are optimized to measure the incorporation of ^32P from [γ^32P]ATP into a glutamate-tyrosine co-polymer substrate. Briefly, to each well is added 82.5 μL incubation buffer B (25 mM Hepes (pH 7.0), 150 mM NaCl, 0.1% Triton X-100, 0.2 mM PMSF, 0.2 mM Na3VO4, 10 mM MnCl2) and 750 μg/mL Poly (4:1) glutamate-tyrosine followed by 2.5 μL of the test compound in buffer B and 5 μL of a 7.5 μg/μL FGFr solution to initiate the reaction. Following a 10-minute incubation at 25° C., […] [γ^32P]ATP (0.4 μCi plus 50 μM ATP) is added to each well, and samples are incubated for an additional 10 minutes at 25° C. The reaction is terminated by the addition of 100 μL 30% trichloroacetic acid (TCA) containing 20 mM sodium pyrophosphate and precipitation of material onto glass fiber mats (Wallac). […] Nonspecific activity is defined as radioactivity retained on the filters following incubation of samples with buffer alone (no enzyme). Specific enzymatic activity (enzyme plus buffer) is defined as total activity minus nonspecific activity.

The target of assay [3] is Cdk4/Cyclin D (Homo sapiens, UniProt P11802). In words: Assay for Inhibition of Cdk4/Cyclin D. The note with it: 25 μM ATP, retinoblastoma protein substrate, 25° C., 15 minutes. The procedure: as §1
Chain of Cdk4/Cyclin D (P11802 whole entry, species assumed): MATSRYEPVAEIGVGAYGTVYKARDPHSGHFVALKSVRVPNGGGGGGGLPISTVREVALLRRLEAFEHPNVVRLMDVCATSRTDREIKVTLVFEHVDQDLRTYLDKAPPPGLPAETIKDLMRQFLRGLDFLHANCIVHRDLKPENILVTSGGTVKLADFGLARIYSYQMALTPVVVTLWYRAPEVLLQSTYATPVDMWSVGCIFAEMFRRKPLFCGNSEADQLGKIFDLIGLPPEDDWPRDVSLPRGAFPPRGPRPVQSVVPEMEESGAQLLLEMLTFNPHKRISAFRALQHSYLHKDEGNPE
Chain of Cdk4/Cyclin D (P24385 whole entry partner, species assumed): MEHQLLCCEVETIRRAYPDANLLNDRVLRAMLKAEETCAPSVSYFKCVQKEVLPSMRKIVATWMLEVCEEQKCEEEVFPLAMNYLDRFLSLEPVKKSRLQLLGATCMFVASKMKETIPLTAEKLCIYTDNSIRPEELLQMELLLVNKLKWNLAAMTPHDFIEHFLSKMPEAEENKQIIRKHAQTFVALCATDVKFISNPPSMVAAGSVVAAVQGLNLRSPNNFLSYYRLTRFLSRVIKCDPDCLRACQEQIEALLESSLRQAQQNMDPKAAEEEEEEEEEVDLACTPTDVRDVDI
Assay for Inhibition of Cdk4/Cyclin D
The Cdk4 enzyme assay for IC50 determination and kinetic evaluation is performed as follows. 96-well filter plates (Millipore MADVN6550) are used. […] Buffer A containing excess EDTA was used to determine the level of background ^32P in the absence of enzyme activity. All components except the ATP are added to the wells, and the plate is placed on a plate mixer for 2 minutes. The reaction is started by adding [^32P]ATP, and the plate is incubated at 25° C. for 15 minutes. The reaction is terminated by addition of 0.1 mL 20% trichloroacetic acid (TCA). The plate is kept at 4° C. for at least 1 hour to allow the substrate to precipitate. The wells are then washed five times with 0.2 mL 10% TCA, and ^32P incorporation is determined with a beta plate counter (Wallac Inc., Gaithersburg, Md.).

Where a name gives a salt, the structure may show the parent alone.

This is an account of results in USRE47739E1, “2-(pyridin-2-ylamino)-pyrido[2,3-D]pyrimidin-7-ones” (Warner-Lambert Company LLC, priority 2002, dated 2019).

The term IC50 denotes the midpoint of a concentration-inhibition curve.

For `O=c1ccc2cnc(Nc3ccccc3)nc2n1C1CCCC1` [1′, reference compound], in assay [1], the IC50 turned out to be 0.021 µM. This lies in the double-digit nanomolar range.
With `O=c1c(CO)cc2cnc(Nc3ccc(N4CCNCC4)cn3)nc2n1C1CCCC1` [Example 29, 8-Cyclopentyl-6-hydroxymethyl-2-(5-piperazin-1-yl-pyridin-2-ylamino)-8H-pyrido[2,3-d]pyrimidin-7-one hydrochloride], the IC50 in assay [2] stood at 4.38 µM; in assay [3], 13 nM.
For `CC(=O)c1cc2cnc(Nc3ccc(N4CCNCC4)cn3)nc2n(C2CCCC2)c1=O` [Example 33, 6-Acetyl-8-cyclopentyl-2-(5-piperazin-1-yl-pyridin-2-ylamino)-8H-pyrido[2.3-d]pyrimidin-7-one hydrochloride], the IC50 was greater than 5 µM in assay [2] and 123 nM in assay [3].
For the molecule `O=c1c(Br)cc2cnc(Nc3ccccn3)nc2n1C1CCCC1` [Example 38, 6-Bromo-8-cyclopentyl-2-(Pyridin-2-ylamino)-8H-pyrido[2,3-]pyrimidin-7-one], the IC50 in assay [2] was greater than 5 µM; in assay [3], 950 nM.
On to `CCc1cc2cnc(Nc3ccc(N4CCC(O)CC4)cn3)nc2n(C2CCCC2)c1=O` [Example 51, 8-Cyclopentyl-6-ethyl-2-(4-hydroxy-3,4,5,6-tetrahydro-2H-[1,3′]bipyridinyl-6′-ylamino)-8H-pyrido [2,3-d]pyrimidin-7-one], for which the IC50 was 135 nM in assay [3] and greater than 5 µM in assay [1].
Regarding `CCOCCOc1cc2cnc(Nc3ccc(N4CCNCC4)cn3)nc2n(C2CCCC2)c1=O` [Example 53, 8-Cyclopentyl-6-(2-ethoxy-ethoxy)-2-(5-piperazin-1-yl-pyridin-2-ylamino)-8H-pyrido[2,3-d]pyrimidin-7-one], the 50% inhibitory concentration (IC50) in assay [2] was greater than 5 µM; in assay [3], 36 nM.
Regarding `CC(C)n1c(=O)ccc2cnc(Nc3ccc(N4CCNCC4)cn3)nc21` [Example 57, 8-isopropyl-2-(5-piperazin-1-yl-pyridin-2-ylamino)-8H-pyrido[2.3-d]pyrimidin-7-one], the IC50 in assay [2] is greater than 5 µM; in assay [3], greater than 5000 nM.
As for `O=c1ccc2cnc(Nc3ccc(N4CCNCC4)cn3)nc2n1C1CC1` [Example 64, 8-cyclopropyl-2-(5-piperazin-1-yl-pyridin-2-ylamino)-8H-pyrido[2,3-d]pyrimidin-7-one], the IC50 turned out to be 4.47 µM in assay [2] and 920 nM in assay [3].
For `Cc1c(Br)c(=O)n(C2CCCC2)c2nc(Nc3cccc(N)n3)ncc12` [Example 66, 2-(6-amino-pyridin-2-ylamino)-6-bromo-8-cyclopentyl-5-methyl-8H-pyrido[2,3-d]pyrimidin-7-one], the IC50 in assay [3] is 763 nM; in assay [1], greater than 5 µM.
`CC(=O)c1c(C)c2cnc(Nc3ccc(N4CCC(N)C4)cn3)nc2n(C2CCCC2)c1=O` (centres unmarked) [Example 74, 6-Acetyl-2-[5-(3-amino-pyrrolidin-1-yl)-pyridin-2-ylamino]-8-cyclopentyl-5-methyl-8H-pyrido[2,3-d]pyrimidin-7-one]: the figures for the IC50 in assay [2] and in assay [3] were greater than 5 µM and 14 nM, respectively.
For `Cc1c(Br)c(=O)n(C2CCCC2)c2nc(Nc3ccc(N4CCC(O)CC4)cn3)ncc12` [Example 75, 6-Bromo-8-cyclopentyl-2-(4-hydroxy-3,4,5,6-tetrahydro-2H-[1,3′]bipyridinyl-6′-ylamino)-5-methyl-8H-pyrido[2,3-d]pyrimidin-7-one], the IC50 is greater than 5 µM in assay [2] and 74 nM in assay [3].
Regarding `CC(=O)c1c(C)c2cnc(Nc3ccc(N4CCCNCC4)cn3)nc2n(C2CCCC2)c1=O` [Example 81, 6-Acetyl-8-cyclopentyl-2-(5-[1,4]diazepan-1-yl-pyridin-2-ylamino)-5-methyl-8H-pyrido[2,3-d]pyrimidin-7-one], the IC50 is greater than 5 µM in assay [2] and 12 nM in assay [3].
In the case of `CC(=O)c1c(C)c2cnc(Nc3ccccn3)nc2n(C2CCCC2)c1=O` [Example 82, 6-Acetyl-8-cyclopentyl-5-methyl-2-(pyridin-2-ylamino)-8H-pyrido[2,3-d]pyrimindin-7-one], the IC50 is greater than 5 µM in assay [2] and 440 nM in assay [3].
Take `Cc1cc(=O)n(C2CCCC2)c2nc(Nc3ccc(N4CCNCC4)cn3)ncc12` [Example 84, 8-Cyclopentyl-5-methyl-2-(5-piperazin-4-yl-pyridin-2-ylamino)-8H-pyrido[2,3-d]pyrimidin-7-one]: the results for the IC50 in assay [2] and in assay [3] were greater than 5 µM and 580 nM, respectively.
In the case of `CC(=O)c1c(C)c2cnc(Nc3ccc(N4CCNC(C)(C)C4)cn3)nc2n(C2CCCC2)c1=O` [Example 90, 6-Acetyl-8-cyclopentyl-2-[5-(3,3-dimethyl-piperazin-1-yl)-pyridin-2-ylamino]-5-methyl-8H-pyrido[2,3-d]pyrimidin-7-one], the half-maximal inhibitory concentration (IC50) was greater than 5 µM in assay [2] and 21 nM in assay [3].
On to `Cc1c(Br)c(=O)n(C2CCCC2)c2nc(Nc3ccc(N4CC(C)NC(C)C4)cn3)ncc12` (centres unmarked) [Example 93, 6-Bromo-8-cyclopentyl-2-[5-(3,5-dimethyl-piperazin-1-yl)-pyridin-2-ylamino]-5-methyl-8H-pyrido[2,3-d]pyrimidin-7-one], for which the IC50 in assay [2] was greater than 5 µM; in assay [3], 63 nM.
On to `CC(=O)c1c(C)c2cnc(Nc3ccc(N4CC(C)NC(C)C4)cn3)nc2n(C2CCCC2)c1=O` (centres unmarked) [Example 95, 6-Acetyl-8-cyclopentyl-2-[5-(3,5-dimethyl-piperazin-1-yl)-pyridin-2-ylamino]-5-methyl-8H-pyrido[2,3-d]pyrimidin-7-one], for which the IC50 was greater than 5 µM in assay [2] and 37 nM in assay [3].
On to `Cc1c(Br)c(=O)n(C2CCCC2)c2nc(Nc3ccc(N4CCOCC4)cn3)ncc12` [Example 98, 6-Bromo-8-cyclopentyl-5-methyl-2-(5-morpholin-4-yl-pyridin-2-ylamino)-8H-pyrido[2,3-d]pyrimidin-7-one], for which the values for the IC50 in assay [2] and in assay [3] were greater than 5 µM and 1950 nM, respectively.
Take `CC(=O)c1c(C)c2cnc(Nc3ccc(N4CCOCC4)cn3)nc2n(C2CCCC2)c1=O` [Example 100, 6-Acetyl-8-cyclopentyl-5-methyl-2-(5-morpholin-4-yl-pyridin-2-ylamino)-8H-pyrido[2,3-d]pyrimidin-7-one]: the IC50 is greater than 5 µM in assay [2] and 4 nM in assay [3].
For the molecule `CCOCCc1cc2cnc(Nc3ccc(N4CCNCC4)cn3)nc2n(C2CCCC2)c1=O` [Example 108, 8-Cyclopentyl-6-(2-ethoxy-ethyl)-2-(5-piperazin-1-yl-pyridin-2-ylamino)-8H-pyrido[2,3-d]pyrimidin-7-one], the IC50 in assay [2] was greater than 5 µM; in assay [3] it was 124 nM.
As for `COCCOCc1cc2cnc(Nc3ccc(N4CCNCC4)cn3)nc2n(C2CCCC2)c1=O` [Example 112, 8-Cyclopentyl-6-(2-methoxy-ethoxymethyl)-2-(5-piperazin-1-yl-pyridin-2-ylamino)-8H-pyrido[2,3-d]pyrimidin-7-one], the 50% inhibitory concentration (IC50) in assay [2] was greater than 5 µM; in assay [3] it was 31 nM.
The like results for `CCOCc1cc2cnc(Nc3ccc(N4CCNCC4)cn3)nc2n(C2CCCC2)c1=O` [Example 116, 8-Cyclopentyl-6-ethoxymethyl-2-(5-piperazin-1-yl-pyridin-2-ylamino)-8H-pyrido[2,3-d]pyrimidin-7-one] were, in that order, greater than 5 µM and 18 nM.
`CCOCc1cc2cnc(Nc3ccc(N4CCCCC4)cn3)nc2n(C2CCCC2)c1=O` [Example 124, 8-Cyclopentyl-6-ethoxymethyl-2-(3,4,5,6-tetrahydro-2H-[1,3]bipyridinyl-6′-ylamino)-8H-pyrido[2,3-d]pyrimidin-7-one]: the values for the IC50 in assay [3] and in assay [1] were 545 nM and greater than 5 µM, respectively.
As to `CC(=O)c1c(C)c2cnc(Nc3ccc(N4CC(C)OC(C)C4)cn3)nc2n(C2CCCC2)c1=O` (centres unmarked) [Example 130, 6-Acetyl-8-cyclopentyl-2-[5-(2,6-dimethyl-morpholin-4-yl)-pyridin-2-ylamino]-5-methyl-8H-pyrido[2,3-d]pyrimidin-7-one], the results for the IC50 in assay [2] and in assay [3] were greater than 5 µM and 30 nM, respectively.
